Data reported in patent US8658604B2, “Template-fixed beta-hairpin peptidomimetics with protease inhibitory activity” (Polyphor Ltd, priority 2005, dated 2014).
Where a SMILES comes first, the peptide text is derived from it.

Target: T1, Elastase from human neutrophils (Homo sapiens, UniProt P08246)
T1 sequence (P08246 30-267): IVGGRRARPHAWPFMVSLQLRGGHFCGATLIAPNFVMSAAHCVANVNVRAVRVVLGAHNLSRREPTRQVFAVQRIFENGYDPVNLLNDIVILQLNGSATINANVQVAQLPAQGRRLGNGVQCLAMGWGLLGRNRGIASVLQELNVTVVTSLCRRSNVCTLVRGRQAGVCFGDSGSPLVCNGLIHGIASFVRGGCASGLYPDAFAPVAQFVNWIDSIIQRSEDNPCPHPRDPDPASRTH
Experiment: Enzymatic assay, elastase
Conditions: Elastase IC50

In order of falling IC50:
1. CC[C@H](C)[C@@H]1NC(=O)[C@@H]2CCCN2C(=O)[C@H]2CCCN2C(=O)[C@H](Cc2ccc(O)cc2)NC(=O)[C@@H]2CSSC[C@H](NC1=O)C(=O)N[C@@H]([C@@H](C)O)C(=O)N[C@@H](C)C(=O)N[C@@H](CO)C(=O)N[C@@H](CC(C)C)C(=O)N1CCC[C@H]1C(=O)N1CCC[C@H]1C(=O)N[C@@H](CCC(N)=O)C(=O)N2 [Ex. 76] (HELM PEPTIDE1{I.C.T.A.S.L.P.P.Q.C.Y.[dP].P}$PEPTIDE1,PEPTIDE1,2:R3-10:R3|PEPTIDE1,PEPTIDE1,1:R1-13:R2$$$V2.0)  71 nM
2. CCCC[C@@H]1NC(=O)[C@@H]2CCCN2C(=O)[C@H]2CCCN2C(=O)[C@H](CCCC)NC(=O)[C@@H]2CSSC[C@H](NC1=O)C(=O)N[C@@H]([C@@H](C)O)C(=O)N[C@@H](C)C(=O)N[C@@H](CO)C(=O)N[C@@H]([C@@H](C)CC)C(=O)N1CCC[C@H]1C(=O)N1CCC[C@H]1C(=O)N[C@@H](CCC(N)=O)C(=O)N2 [Ex. 94] (HELM PEPTIDE1{[Nle].C.T.A.S.I.P.P.Q.C.[Nle].[dP].P}$PEPTIDE1,PEPTIDE1,2:R3-10:R3|PEPTIDE1,PEPTIDE1,1:R1-13:R2$$$V2.0)  50 nM
3. CCCC[C@@H]1NC(=O)[C@@H]2CCCN2C(=O)[C@H]2CCCN2C(=O)[C@H](Cc2ccc(O)cc2)NC(=O)[C@H](CCCCN)NC(=O)[C@H](CCC(N)=O)NC(=O)[C@@H]2CCCN2C(=O)[C@@H]2CCCN2C(=O)[C@H]([C@@H](C)CC)NC(=O)[C@H](CO)NC(=O)[C@H](C)NC(=O)[C@H]([C@@H](C)O)NC(=O)[C@H]([C@@H](C)O)NC1=O [Ex. 106] (HELM PEPTIDE1{[Nle].T.T.A.S.I.P.P.Q.K.Y.[dP].P}$PEPTIDE1,PEPTIDE1,1:R1-13:R2$$$V2.0)  49 nM
4. CCCC[C@@H]1NC(=O)[C@@H]2CCCN2C(=O)[C@H]2CCCN2C(=O)[C@H](Cc2ccc(O)cc2)NC(=O)[C@H](CO)NC(=O)[C@H](CCC(N)=O)NC(=O)[C@@H]2CCCN2C(=O)[C@@H]2CCCN2C(=O)[C@H]([C@@H](C)CC)NC(=O)[C@H](CO)NC(=O)[C@H](C)NC(=O)[C@H]([C@@H](C)O)NC(=O)[C@H](CCC(N)=O)NC1=O [Ex. 111] (HELM PEPTIDE1{[Nle].Q.T.A.S.I.P.P.Q.S.Y.[dP].P}$PEPTIDE1,PEPTIDE1,1:R1-13:R2$$$V2.0)  46 nM
5. CCCC[C@@H]1NC(=O)[C@@H]2CCCN2C(=O)[C@@H](C(C)C)NC(=O)[C@H](Cc2ccc(O)cc2)NC(=O)[C@@H]2CSSC[C@H](NC1=O)C(=O)N[C@@H]([C@@H](C)O)C(=O)N[C@@H](C)C(=O)N[C@@H](CO)C(=O)N[C@@H]([C@@H](C)CC)C(=O)N1CCC[C@H]1C(=O)N1CCC[C@H]1C(=O)N[C@@H](CCC(N)=O)C(=O)N2 [Ex. 119] (HELM PEPTIDE1{A.S.I.P.P.Q.C.Y.[dV].P.[Nle].C.T}$PEPTIDE1,PEPTIDE1,7:R3-12:R3|PEPTIDE1,PEPTIDE1,1:R1-13:R2$$$V2.0)  45 nM
6. CCCC[C@@H]1NC(=O)[C@H]([C@@H](C)O)NC(=O)[C@@H](Cc2ccccc2)NC(=O)[C@H](Cc2ccc(O)cc2)NC(=O)[C@@H]2CSSC[C@H](NC1=O)C(=O)N[C@@H]([C@@H](C)O)C(=O)N[C@@H](C)C(=O)N[C@@H](CO)C(=O)N[C@@H]([C@@H](C)CC)C(=O)N1CCC[C@H]1C(=O)N1CCC[C@H]1C(=O)N[C@@H](CCC(N)=O)C(=O)N2 [Ex. 128] (HELM PEPTIDE1{A.S.I.P.P.Q.C.Y.[dF].T.[Nle].C.T}$PEPTIDE1,PEPTIDE1,7:R3-12:R3|PEPTIDE1,PEPTIDE1,1:R1-13:R2$$$V2.0)  40 nM
7. CCCC[C@@H]1NC(=O)[C@@H]2CCCN2C(=O)[C@H]2CCCN2C(=O)[C@H](Cc2ccc(O)cc2)NC(=O)[C@H](CCC(N)=O)NC(=O)[C@H](CCC(N)=O)NC(=O)[C@@H]2CCCN2C(=O)[C@@H]2CCCN2C(=O)[C@H]([C@@H](C)CC)NC(=O)[C@H](CO)NC(=O)[C@H](C)NC(=O)[C@H]([C@@H](C)O)NC(=O)[C@H]([C@@H](C)O)NC1=O [Ex. 110] (HELM PEPTIDE1{[Nle].T.T.A.S.I.P.P.Q.Q.Y.[dP].P}$PEPTIDE1,PEPTIDE1,1:R1-13:R2$$$V2.0)  38 nM
8. CCCC[C@@H]1NC(=O)[C@H]([C@@H](C)O)NC(=O)[C@@H]([C@H](C)O)NC(=O)[C@H](Cc2ccc(O)cc2)NC(=O)[C@@H]2CSSC[C@H](NC1=O)C(=O)N[C@@H]([C@@H](C)O)C(=O)N[C@@H](C)C(=O)N[C@@H](CO)C(=O)N[C@@H]([C@@H](C)CC)C(=O)N1CCC[C@H]1C(=O)N1CCC[C@H]1C(=O)N[C@@H](CCC(N)=O)C(=O)N2 [Ex. 126] (HELM PEPTIDE1{A.S.I.P.P.Q.C.Y.[dT].T.[Nle].C.T}$PEPTIDE1,PEPTIDE1,7:R3-12:R3|PEPTIDE1,PEPTIDE1,1:R1-13:R2$$$V2.0)  36 nM
9. CCCC[C@@H]1NC(=O)[C@@H]2CCCN2C(=O)[C@H]2CCCN2C(=O)[C@H](Cc2ccc(O)cc2)NC(=O)[C@@H]2CSSC[C@H](NC1=O)C(=O)N[C@@H]([C@@H](C)O)C(=O)N[C@@H](C)C(=O)N[C@@H](CO)C(=O)N[C@@H](CC(C)C)C(=O)N1CCC[C@H]1C(=O)N1CCC[C@H]1C(=O)N[C@@H](Cc1ccc(O)cc1)C(=O)N2 [Ex. 113] (HELM PEPTIDE1{[Nle].C.T.A.S.L.P.P.Y.C.Y.[dP].P}$PEPTIDE1,PEPTIDE1,2:R3-10:R3|PEPTIDE1,PEPTIDE1,1:R1-13:R2$$$V2.0)  35 nM
10. CCCC[C@@H]1NC(=O)[C@@H]2CCCN2C(=O)[C@H]2CCCN2C(=O)[C@H](Cc2ccc(O)cc2)NC(=O)[C@H](CCCNC(=N)N)NC(=O)[C@H](CCC(N)=O)NC(=O)[C@@H]2CCCN2C(=O)[C@@H]2CCCN2C(=O)[C@H]([C@@H](C)CC)NC(=O)[C@H](CO)NC(=O)[C@H](C)NC(=O)[C@H]([C@@H](C)O)NC(=O)[C@H](CCC(=O)O)NC1=O [Ex. 105] (HELM PEPTIDE1{[Nle].E.T.A.S.I.P.P.Q.R.Y.[dP].P}$PEPTIDE1,PEPTIDE1,1:R1-13:R2$$$V2.0)  34 nM
11. CCCCCCCC[C@@H]1NC(=O)[C@H](CO)NC(=O)[C@H](C)NC(=O)[C@H]([C@@H](C)O)NC(=O)[C@@H]2CSSC[C@H](NC(=O)[C@H](CCC(N)=O)NC(=O)[C@@H]3CCCN3C(=O)[C@@H]3CCCN3C1=O)C(=O)N[C@@H](CCC(N)=O)C(=O)N1CCC[C@@H]1C(=O)N1CCC[C@H]1C(=O)N[C@@H](CCCC)C(=O)N2 [Ex. 129] (HELM PEPTIDE1{[Nle].C.T.A.S.[CCCCCCCC[C@H](N[*:1])C(=O)[*:2]].P.P.Q.C.Q.[dP].P}$PEPTIDE1,PEPTIDE1,2:R3-10:R3|PEPTIDE1,PEPTIDE1,1:R1-13:R2$$$V2.0)  30 nM
12. CC[C@H](C)[C@@H]1NC(=O)[C@H](CO)NC(=O)[C@H](C)NC(=O)[C@H]([C@@H](C)O)NC(=O)[C@H](CCC(=O)O)NC(=O)[C@H](CCc2ccccc2)NC(=O)[C@@H]2CCCN2C(=O)[C@H]2CCCN2C(=O)[C@H](Cc2ccc(O)cc2)NC(=O)[C@H](CCCCN)NC(=O)[C@H](CCC(N)=O)NC(=O)[C@@H]2CCCN2C(=O)[C@@H]2CCCN2C1=O [Ex. 132] (HELM PEPTIDE1{[O=C([C@H](CCc1ccccc1)N[*:1])[*:2]].E.T.A.S.I.P.P.Q.K.Y.[dP].P}$PEPTIDE1,PEPTIDE1,1:R1-13:R2$$$V2.0)  26 nM
13. CC[C@H](C)[C@@H]1NC(=O)[C@H](CO)NC(=O)[C@H](C)NC(=O)[C@H]([C@@H](C)O)NC(=O)[C@H]([C@@H](C)O)NC(=O)[C@H](CCc2ccccc2)NC(=O)[C@@H]2CCCN2C(=O)[C@H]2CCCN2C(=O)[C@H](Cc2ccc(O)cc2)NC(=O)[C@H](CCC(N)=O)NC(=O)[C@H](CCC(N)=O)NC(=O)[C@@H]2CCCN2C(=O)[C@@H]2CCCN2C1=O [Ex. 134] (HELM PEPTIDE1{[O=C([C@H](CCc1ccccc1)N[*:1])[*:2]].T.T.A.S.I.P.P.Q.Q.Y.[dP].P}$PEPTIDE1,PEPTIDE1,1:R1-13:R2$$$V2.0)  23 nM
14. CCCC[C@@H]1NC(=O)[C@H](CCC(N)=O)NC(=O)[C@@H](CCC(N)=O)NC(=O)[C@H](CC2CCCCC2)NC(=O)[C@@H]2CSSC[C@H](NC1=O)C(=O)N[C@@H]([C@@H](C)O)C(=O)N[C@@H](C)C(=O)N[C@@H](CO)C(=O)N[C@@H](CC1CCCCC1)C(=O)N1CCC[C@H]1C(=O)N1CCC[C@H]1C(=O)N[C@@H](CCC(N)=O)C(=O)N2 [Ex. 171] (HELM PEPTIDE1{[Nle].C.T.A.S.[Cha].P.P.Q.C.[Cha].[dQ].Q}$PEPTIDE1,PEPTIDE1,2:R3-10:R3|PEPTIDE1,PEPTIDE1,1:R1-13:R2$$$V2.0)  13 nM
15. CCCC[C@@H]1NC(=O)[C@H](CCC(N)=O)NC(=O)[C@H]2CCCN2C(=O)[C@H](CC2CCCCC2)NC(=O)[C@@H]2CSSC[C@H](NC1=O)C(=O)N[C@@H]([C@@H](C)O)C(=O)N[C@@H](C)C(=O)N[C@@H](CO)C(=O)N[C@@H](CC1CCCCC1)C(=O)N1CCC[C@H]1C(=O)N1CCC[C@H]1C(=O)N[C@@H](CCC(N)=O)C(=O)N2 [compound 172] (HELM PEPTIDE1{[Nle].C.T.A.S.[Cha].P.P.Q.C.[Cha].[dP].Q}$PEPTIDE1,PEPTIDE1,2:R3-10:R3|PEPTIDE1,PEPTIDE1,1:R1-13:R2$$$V2.0)  13 nM
16. CCCCCCCC[C@@H]1NC(=O)[C@H](CO)NC(=O)[C@H](C)NC(=O)[C@H]([C@@H](C)O)NC(=O)[C@@H]2CSSC[C@H](NC(=O)[C@H](CCC(N)=O)NC(=O)[C@@H]3CCCN3C(=O)[C@@H]3CCCN3C1=O)C(=O)N[C@@H](Cc1ccccc1)C(=O)N1CCC[C@@H]1C(=O)N1CCC[C@H]1C(=O)N[C@@H](CCc1ccccc1)C(=O)N2 [Ex. 152] (HELM PEPTIDE1{[O=C([C@H](CCc1ccccc1)N[*:1])[*:2]].C.T.A.S.[CCCCCCCC[C@H](N[*:1])C(=O)[*:2]].P.P.Q.C.F.[dP].P}$PEPTIDE1,PEPTIDE1,2:R3-10:R3|PEPTIDE1,PEPTIDE1,1:R1-13:R2$$$V2.0)  9 nM
17. CCCCCCCC[C@@H]1NC(=O)[C@H](CCC(N)=O)NC(=O)[C@H]2CCCN2C(=O)[C@H](CCC(N)=O)NC(=O)[C@@H]2CSSC[C@H](NC1=O)C(=O)N[C@@H]([C@@H](C)O)C(=O)N[C@@H](C)C(=O)N[C@@H](CO)C(=O)N[C@@H](CCCCCCCC)C(=O)N1CCC[C@H]1C(=O)N1CCC[C@H]1C(=O)N[C@@H](CCC(N)=O)C(=O)N2 [compound 178] (HELM PEPTIDE1{[CCCCCCCC[C@H](N[*:1])C(=O)[*:2]].C.T.A.S.[CCCCCCCC[C@H](N[*:1])C(=O)[*:2]].P.P.Q.C.Q.[dP].Q}$PEPTIDE1,PEPTIDE1,2:R3-10:R3|PEPTIDE1,PEPTIDE1,1:R1-13:R2$$$V2.0)  6 nM
